{
  "source": "patent US6180599A",
  "about": "“Pharmaceutical composition, containing medium-chain fatty acids as active ingredients, for dental caries and periodontal disease” (priority 1997, dated 2001)",
  "key": {"A. viscosus ATCC 15987": {"test_system": "A. viscosus ATCC 15987", "experiment": "Inhibitory effect on extracellular polysaccharide synthesis, standard strain", "format": "cell-based", "settings": "1 mM", "procedure": "(§1) In order to identify the effect by which medium-chain fatty acids inhibit plaque matrix formation, inhibitory effect and concentration of extracellular polysaccharide synthesis were determined in seven kinds of standard cariogenic plaque bacteria. Also, the inhibitory effect of extracellular polysaccharide synthesis for 20 kinds of cariogenic plaque bacteria, separated from the human oral cavity, was measured. Liquid culture media used were: Todd-Hewitt broth of Streptococcus, Lactobacilli MRS broth of Lactobacillus and Brain Heart Infusion broth of Actinomyces. 0.1 ml of bacterial (or cell) suspension (OD600 =0.5) of each bacteria was inoculated to 5.9 ml of culture media containing 1 mM of medium-chain fatty acids and 2% of glucose, and was cultured for 24^~ 48 hours in 10% CO2 incubator. After culturing, the resultant was centrifuged to precipitate at 5,000×g for 15 minutes, then soluble extracellular polysaccharide was separated and purified from the supernatant and insoluble extracellular polysaccharide from the cell pellet, and then these were quantified."}, "S. sanguis 10556": {"test_system": "S. sanguis 10556", "experiment": "Inhibitory effect on extracellular polysaccharide synthesis, standard strain", "format": "cell-based", "settings": "1 mM", "procedure": "as §1"}, "[1]": {"test_system": "cariogenic plaque bacteria", "experiment": "Inhibitory effect on extracellular polysaccharide synthesis (summary)", "format": "cell-based, Streptococcus, Lactobacillus and Actinomyces", "settings": "1 mM", "procedure": "as §1, with “quantified. So the experimental results that represent inhibitory effect of medium-chain fatty acids upon extracellular polysaccharide synthesis, are shown in table 1, 2, 3 and 4.” for “quantified.”"}, "[2]": {"experiment": "Extracellular polysaccharide in liquid medium with fatty acid, no bacteria", "procedure": "as §1"}, "dental caries": {"test_system": "dental caries", "experiment": "Inhibitory effect on the occurrence of dental caries in rats", "format": "in vivo, Sprague-Dawley rats", "settings": "for Linear unit for fissure-region dental caries, Dm: dentine moderate; for Linear unit for fissure-region dental caries, Dm / Linear unit for fissure-region dental caries, Ds / Linear unit for fissure-region dental caries, E: 50 mM in feed, 120 days; for Linear unit for fissure-region dental caries, Ds: dentine slight; for Linear unit for fissure-region dental caries, E: enamel only", "procedure": "This experiment was carried out utilizing a dental caries experiment model in rats of Navia (1977) as followings.\nExperimental animals were 48 (male: 24, female: 24) Sprague-Dawley rats, four-weeks old and of […] average body weight. These animals are equally divided into three groups according to sex and body weight at the early stage, and all these animals have clinically healthy teeth.\nExperimental animals are divided into 3 groups according to diet, which are a control group of normal feed, a group of dental caries-induced feed and a experimental group of sodium laurate-added feed. Normal feed is solid feed for rodents (SAMYANG Co., Korea), caries-induced feed is prepared by mixing 40% sugar, 32% powdered milk, 21% flour, 5% yeast, 2% anchovy, 0.01% vitamin B and 0.01% vitamin C. Sodium laurate-added feed was prepared by adding 50 mM of sodium laurate to caries-induced feed. All the experimental animals were allowed water ad libitum.\nOne hundred twenty days later, all experimental animals were euthanized. The maxilla and mandible were separated, and fixed in 10% neutral formalin. A dental caries index was measured by the method originated by Keyes and modified by Larson (1981). Food debris remaining in the fissure of molar of maxilla and mandible was removed by a Barbed Broach tool used in clinical dentistry, then the molar teeth of maxilla and mandible were cut so that they could include the first, second, and third molar by using an Exact cutting system (Exact-Apprateb, Hamburg, Germany) equipped with a diamond-treated saw. Cutting of the molar teeth of both maxilla and mandible was carried out by a handpiece equipped with cutting disc (thickness, 0.004 inch; diameter, 0.75 inch). The direction of the cutting was from the mesial side of the first molar to the distal side of the third molar. The samples which were cut were stained in order to measure the dental caries-index easily. Staining was carried out as follows; samples were cultured with 0.02% solution of ammonium prupurate (murexide) for 12 hours, washed with flowing water for 10 minutes, then treated with 0.2% of ammoniacal silver nitrate for 30 seconds and washed with flowing water for 2 minutes before measurement. The degree of the affection of dental caries at the cut surface is classified into enamel only (E) when dental caries is affected only to enamel; and into slight (Ds), moderate (Dm) and extensive (Dx) according to the extent of affection when dental caries is affected further into the dentine. The total sum was calculated by adding up marks within the range of linear units administered to each tooth according to the modified method of Larson (1981).\nStatistical analysis of each group concerning the linear unit, showing the extent of dental caries, was carried out using the Mann-Whitney test. Statistical analysis according to the feed and the region where the teeth were placed (maxilla or mandible) was carried out by the Kruskal-Wallis test. If more than 2/3 of the dental crown was lost due to serious abrasion and if it was impossible to observe in the process of treating samples, these teeth were excluded in the statistics."}},
  "data": [
    {"smiles": "CCCCCCCCCCCC(=O)[O-].[Na+]", "note": "[C12, sodium laurate]", "values": [
      {"measurement": "Extracellular polysaccharide, insoluble", "setting": "A. viscosus ATCC 15987; 2% glucose, 24-48 hours, control 2.1 ± 0.2", "value": "0.2 ± 0.1", "unit": "µg/mL"},
      {"measurement": "Extracellular polysaccharide, soluble", "setting": "A. viscosus ATCC 15987; 2% glucose, 24-48 hours, control 222.8 ± 3.3", "value": "25.3 ± 1.7", "unit": "µg/mL"},
      {"measurement": "Inhibitory rate, soluble", "setting": "A. viscosus ATCC 15987; vs control", "value": 89, "unit": "%"},
      {"measurement": "Extracellular polysaccharide, soluble", "setting": "S. sanguis 10556; 2% glucose, 24-48 hours, control 25.9 ± 4.3", "value": "12.2 ± 0.9", "unit": "µg/mL"},
      {"measurement": "Inhibitory rate, soluble", "setting": "S. sanguis 10556; vs control", "value": 53, "unit": "%"},
      {"measurement": "inhibitory effect of extracellular polysaccharide synthesis (in words)", "setting": "[1]", "value": "inhibited in the highest degree"},
      {"measurement": "inhibitory effect of extracellular polysaccharide synthesis, sequence", "setting": "[1]; ranking", "value": "sodium laurate>sodium capriate>sodium nonanoate"},
      {"measurement": "Extracellular polysaccharide, soluble", "setting": "[2]; Table 1, 1 mM", "value": "1.4 ± 0.1", "unit": "µg/mL"},
      {"measurement": "Extracellular polysaccharide, soluble", "setting": "[2]; Table 2, 1 mM", "value": "4.6 ± 1.3", "unit": "µg/mL"},
      {"measurement": "Extracellular polysaccharide, soluble", "setting": "[2]; Table 3, 1 mM", "value": "4.4 ± 0.2", "unit": "µg/mL"},
      {"measurement": "Linear unit, Total (average ± standard deviation)", "setting": "dental caries; 164 teeth, P < 0.01 vs caries-inducing feed (3.01 ± 2.35), normal feed 2.34 ± 1.37", "value": "1.71 ± 1.26"},
      {"measurement": "Linear unit for fissure-region dental caries, Dm", "setting": "dental caries; Mandible, 1st molar", "value": 0},
      {"measurement": "Linear unit for fissure-region dental caries, Ds", "setting": "dental caries; Mandible, 1st molar", "value": 7},
      {"measurement": "Linear unit for fissure-region dental caries, E", "setting": "dental caries; Mandible, 1st molar", "value": 72},
      {"measurement": "Linear unit for fissure-region dental caries, Dm", "setting": "dental caries; Mandible, 2nd molar", "value": 0},
      {"measurement": "Linear unit for fissure-region dental caries, Ds", "setting": "dental caries; Mandible, 2nd molar", "value": 10},
      {"measurement": "Linear unit for fissure-region dental caries, E", "setting": "dental caries; Mandible, 2nd molar", "value": 55},
      {"measurement": "Linear unit for fissure-region dental caries, Dm", "setting": "dental caries; Mandible, 3rd molar", "value": 0},
      {"measurement": "Linear unit for fissure-region dental caries, Ds", "setting": "dental caries; Mandible, 3rd molar", "value": 0},
      {"measurement": "Linear unit for fissure-region dental caries, E", "setting": "dental caries; Mandible, 3rd molar", "value": 16},
      {"measurement": "Linear unit for fissure-region dental caries, Dm", "setting": "dental caries; Maxilla, 1st molar", "value": 0},
      {"measurement": "Linear unit for fissure-region dental caries, Ds", "setting": "dental caries; Maxilla, 1st molar", "value": 1},
      {"measurement": "Linear unit for fissure-region dental caries, E", "setting": "dental caries; Maxilla, 1st molar", "value": 61},
      {"measurement": "Linear unit for fissure-region dental caries, Dm", "setting": "dental caries; Maxilla, 2nd molar", "value": 0},
      {"measurement": "Linear unit for fissure-region dental caries, Ds", "setting": "dental caries; Maxilla, 2nd molar", "value": 0},
      {"measurement": "Linear unit for fissure-region dental caries, E", "setting": "dental caries; Maxilla, 2nd molar", "value": 41},
      {"measurement": "Linear unit for fissure-region dental caries, Dm", "setting": "dental caries; Maxilla, 3rd molar", "value": 0},
      {"measurement": "Linear unit for fissure-region dental caries, Ds", "setting": "dental caries; Maxilla, 3rd molar", "value": 0},
      {"measurement": "Linear unit for fissure-region dental caries, E", "setting": "dental caries; Maxilla, 3rd molar", "value": 17},
      {"measurement": "dental caries in experimental animals (in words)", "setting": "dental caries; sodium laurate-added feed", "value": "noticeably reduced dental caries in experimental animals"}
    ]}
  ]
}
